These results are taken from publication PMC3534858 (Bioorganic & medicinal chemistry letters, 2012).

A short description of data set [1]: Intrinsic clearance by mouse liver microsomes. The class given is in vitro ADME. Particulars: for CLHEP (predicted hepatic clearance): estimated from Clint, mouse hepatic blood flow QH 90 mL/min/kg.
The nature of data set [2]: In vivo pharmacokinetics of 7 in mice. Particulars: mouse, plasma, iv, 1 mg/kg.
Another data set deals with human EP1 receptor. Particulars: cited from earlier work.
For a further data set, the target named is T1, mouse EP1 receptor (Mus musculus, UniProt P35375).
T1 sequence (P35375 1-405): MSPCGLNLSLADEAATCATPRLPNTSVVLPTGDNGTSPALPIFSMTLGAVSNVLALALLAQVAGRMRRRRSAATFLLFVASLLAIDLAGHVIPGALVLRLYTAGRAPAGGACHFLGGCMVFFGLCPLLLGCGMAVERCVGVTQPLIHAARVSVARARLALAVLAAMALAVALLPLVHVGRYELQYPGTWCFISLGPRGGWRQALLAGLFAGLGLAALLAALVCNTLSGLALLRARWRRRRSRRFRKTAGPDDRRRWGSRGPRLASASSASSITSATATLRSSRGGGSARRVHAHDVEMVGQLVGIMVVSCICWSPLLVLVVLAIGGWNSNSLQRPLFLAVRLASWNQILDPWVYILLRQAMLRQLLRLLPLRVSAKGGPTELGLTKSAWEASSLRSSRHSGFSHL
Particulars: for Schild regression slope m: representative experiment, six antagonist concentrations, agonist 17PTPGE2.

Data set [3] has as its system human thromboxane (TP) receptor. Particulars: cited from earlier work.
Another data set has as its target T2, mouse TP receptor (Mus musculus, UniProt P30987).
T2 sequence (P30987 1-341): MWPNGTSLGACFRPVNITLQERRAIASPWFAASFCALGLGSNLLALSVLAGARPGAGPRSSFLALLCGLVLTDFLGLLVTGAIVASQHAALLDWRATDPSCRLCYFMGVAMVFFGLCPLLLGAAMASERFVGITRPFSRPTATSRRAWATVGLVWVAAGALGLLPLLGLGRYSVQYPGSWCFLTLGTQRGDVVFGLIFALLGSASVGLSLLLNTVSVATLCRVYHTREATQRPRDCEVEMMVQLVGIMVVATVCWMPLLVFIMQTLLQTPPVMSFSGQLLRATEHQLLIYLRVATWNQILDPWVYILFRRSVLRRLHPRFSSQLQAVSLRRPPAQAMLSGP
The experiment in a line: Suppression of signaling through mouse TP receptor. The class given is cell-based.

For data set [4] the following is noted: several species; cited from earlier work.
Data set [5] is described as follows: Metabolite identification in hepatic subcellular fractions. The class given is in vitro ADME. To be noted: NADPH-independent hydrolysis and NADPH-dependent oxidation.
Data set [6] relates to phenylephrine vasoconstriction. The data set can be described thus: Phenylephrine pressor response control in anesthetized mice. The class given is in vivo, mouse. To be noted: phenylephrine 10 μg/kg; data not shown.

As for `O=C(O)c1cccc(Cc2cc(Cl)ccc2OCc2ccc(Cl)cc2F)n1` [Compound 7, reference compound], the “CLHEP (predicted hepatic clearance)” value in data set [1] is recorded as 43.6 mL/min/kg. Moreover, in [1] (mouse, liver microsomes), the CLint scaled was found to be 84.7 mL/min/kg. The half-life in data set [2] was more than 60 min. Further, the “Affinity for the human EP1 receptor” value in the data set with human EP1 receptor is given as “good affinity”. Moreover, at mouse EP1 receptor, the affinity, expressed as Kd, was 52.1 nM and the “Schild regression slope m” value was 0.953 ± 0.085. For the same compound, at mouse EP1 receptor (Schild analysis), the “Functional antagonism of mEP1 in vitro” value was “functional antagonist of mEP1”. For the same compound, in data set [3], the “Interaction with the human thromboxane (TP) receptor” value is listed as “high-affinity interaction”. The half-maximal inhibitory concentration (IC50) against mouse TP receptor is 912 nM. Besides, the “Concentration suppressing mouse TP signaling relative to human receptor” value on mouse TP receptor (mouse TP vs human TP) was 100 fold. For the same compound, the “Stability in microsomes and S9 fractions” value in [4] was “stable”.
For `O=C(NCC1CC1)c1cccc(Cc2cc(Cl)ccc2OCc2ccc(Cl)cc2F)n1` [Compound 8], the “CLHEP (predicted hepatic clearance)” value in [1] was 89.3 mL/min/kg. The CLint scaled in data set [1] (mouse, liver microsomes) was 11400 mL/min/kg. For the same compound, the IC50 at mouse TP receptor was more than 1000 nM.
`O=C(c1cccc(Cc2cc(Cl)ccc2OCc2ccc(Cl)cc2F)n1)N1CCCC1` [Compound 9]: the “mEP1 pKD” value at mouse EP1 receptor (Schild analysis, mean ± SEM of at least two independent experiments in duplicate) is on record as 4.80 ± 0.05. The concentration for half-maximal inhibition (IC50) on mouse TP receptor is more than 1000 nM.
Compound `O=C(NC1CCC1)c1cccc(Cc2cc(Cl)ccc2OCc2ccc(Cl)cc2F)n1` [Compound 10] registered an IC50 against mouse TP receptor of more than 1000 nM.
Take `CC(C)CNC(=O)c1cccc(Cc2cc(Cl)ccc2OCc2ccc(Cl)cc2F)n1` [Compound 11]: the “CLHEP (predicted hepatic clearance)” value in data set [1] is recorded as 89.2 mL/min/kg. The intrinsic metabolic clearance (CLint scaled) in data set [1] (mouse, liver microsomes) was 9810 mL/min/kg. For the same compound, in data set [5], the “Biotransformation in metabolite identification studies” value is listed as “extensive biotransformation”. This compound also showed a concentration for half-maximal inhibition (IC50) at mouse TP receptor of more than 1000 nM.
With `CCC(C)NC(=O)c1cccc(Cc2cc(Cl)ccc2OCc2ccc(Cl)cc2F)n1` (centres unmarked) [Compound 12], at mouse TP receptor, the half-inhibitory concentration (IC50) was more than 1000 nM.
Regarding `CC(C)(C)NC(=O)c1cccc(Cc2cc(Cl)ccc2OCc2ccc(Cl)cc2F)n1` [Compound 13], the concentration for half-maximal inhibition (IC50) at mouse TP receptor is more than 1000 nM.
In the case of `CCN(CC)C(=O)c1cccc(Cc2cc(Cl)ccc2OCc2ccc(Cl)cc2F)n1` [Compound 14], in data set [1], the “CLHEP (predicted hepatic clearance)” value was 88.9 mL/min/kg. This compound also showed a CLint scaled in [1] (mouse, liver microsomes) of 7160 mL/min/kg. In addition, the half-maximal inhibitory concentration (IC50) against mouse TP receptor is more than 1000 nM.
`O=C(NC1CC2CCC1C2)c1cccc(Cc2cc(Cl)ccc2OCc2ccc(Cl)cc2F)n1` (centres unmarked) [Compound 15] came in with an IC50 on mouse TP receptor of more than 1000 nM.
On the same count and under the same terms, then `NC(=O)c1cccc(Cc2cc(Cl)ccc2OCc2ccc(Cl)cc2F)n1` [Compound 16], with more than 1000 nM.
Take `O=C(NS(=O)(=O)c1ccc(Cl)cc1)c1cccc(Cc2cc(Cl)ccc2OCc2ccc(Cl)cc2F)n1` [Compound 17]: the “CLHEP (predicted hepatic clearance)” value in data set [1] is 86.6 mL/min/kg. Besides, in data set [1] (mouse, liver microsomes), the intrinsic metabolic clearance (CLint scaled) was found to be 2260 mL/min/kg and the “Clint (intrinsic clearance)” value is given as “less stable in mouse hepatic microsomes than 7”. Further, in data set [5], the “Biotransformation in metabolite identification studies” value is “extensive biotransformation”. Besides, at mouse EP1 receptor, binding was characterised by a dissociation constant (Kd) of 86.5 nM and the “Schild regression slope m” value amounted to 1.20 ± 0.12. In [6], the “Effect of pretreatment on phenylephrine pressor activity” value was “unaffected”. The compound further had an IC50 against mouse TP receptor of more than 1000 nM.
With `O=C(NS(=O)(=O)c1cc(Cl)ccc1Cl)c1cccc(Cc2cc(Cl)ccc2OCc2ccc(Cl)cc2F)n1` [Compound 18], at mouse TP receptor, the 50% inhibitory concentration (IC50) was more than 1000 nM.
As for `Cc1ccc(S(=O)(=O)NC(=O)c2cccc(Cc3cc(Cl)ccc3OCc3ccc(Cl)cc3F)n2)cc1` [Compound 19], the “CLHEP (predicted hepatic clearance)” value in data set [1] was 88.4 mL/min/kg. This compound also displayed a CLint scaled in data set [1] (mouse, liver microsomes) of 5040 mL/min/kg. The same compound gave a 50% inhibitory concentration (IC50) against mouse TP receptor of more than 1000 nM.
Regarding `CCCS(=O)(=O)NC(=O)c1cccc(Cc2cc(Cl)ccc2OCc2ccc(Cl)cc2F)n1` [Compound 20], the IC50 on mouse TP receptor was more than 1000 nM.
Consider `O=C(NS(=O)(=O)c1ccc(Cl)c(Cl)c1)c1cccc(Cc2cc(Cl)ccc2OCc2ccc(Cl)cc2F)n1` [Compound 21], for which the “CLHEP (predicted hepatic clearance)” value in data set [1] is given as 87.4 mL/min/kg. The CLint scaled in [1] (mouse, liver microsomes) was 2990 mL/min/kg. Further, the half-inhibitory concentration (IC50) against mouse TP receptor was more than 1000 nM.
